Measurements as given in patent US20250339409A1, “USES OF PAN BET INHIBITORS” (VYNE THERAPEUTICS INC., priority 2021, published 2025).
Where “and” joins values, the source holds several entries; their conditions need not be identical. Equal values may be shown once.

System: incisional skin wounds
Assay: Incisional skin wound healing model (external and internal scoring, time to complete healing, body weight)
Format: in vivo, female Hairless Skh-1 mice
Design: key to Mean internal scores, Score presence tissue mass: 0 = no tissue mass, 1 = small, 2 = moderate, 3 = large; key to Global external score per day (mean): sum of the scores of 4 external wound parameters; MBWC D 16 − D 0, individual mouse: unit not given here
Settings: for Global external score per day (mean) / Mean score swelling per day / Mean score visibility (external) per day: BETi1 at 1%; for Mean score length (mm) per day / Mean score width (mm) per day: skin wound; for Body weight, individual mouse: in g (unit assumed)
Protocol: Incisional wounds (10 mm) are made over the entire thickness of the skin (about 1 mm) on both flanks of nine female Hairless Skh-1 mice divided into 3 groups (n=3) according to body weight on D0. Formulations or hydroalcoholic gel are administered topically once daily starting immediately after the induction of skin wounds on DO until the complete healing of both wounds of each mouse, at the same time in the morning. The effects of treatment on wound healing with the formulation used containing one dose of the novel BETi, the vehicle of this new compound (negative control) and a hydroalcoholic gel preventing wound healing (positive control), is evaluated by the daily scoring of the healing process externally. The scoring is based on the daily measurement of the length and width, swelling of each induced skin wound from DO until complete healing, the determination of the time required for complete healing of each of induced skin wounds, and after complete healing of both wounds of a same mouse, by the scoring of the healing process internally by evaluation of the visibility of the scar, the presence of a tissue mass (collagen+elastin) under the scar and the level of vascularization of the scar.
Mice are weighed 3 times per week from the day of induction of skin wounds (D0) until the complete healing of both wounds of each mouse and before sacrifice. The viability and the well being of mice of each cage is checked and recorded daily.
The scoring takes into account the following 4 parameters: The length of the skin wounds measured with a ruler.
The width of the skin wounds with the following scoring grid: • 0=skin wound completely closed, • 1=skin wound almost completely closed, • 2=skin wound moderately closed, • 3=skin wound wide open.
The swelling of the skin wounds with the following scoring grid: • 0=skin wound no or no longer swollen, • 1=skin wound slightly swollen, • 2=skin wound moderately swollen, • 3=skin wound highly swollen.
The visibility of the skin wounds with the following scoring grid: • 0=skin wound no or no longer visible, • 1=skin wound slightly visible, • 2=skin wound moderately visible, • 3=skin wound highly visible.
The sum of the scores of these 4 parameters gives the Global External Score of Wound Healing (GESWH). The time required for complete healing of each induced skin wound is also determined.
After the complete healing of both skin wounds of each mouse, mice are sacrificed, and the scoring of the healing process internally is performed for each wound and takes into account the following 3 parameters: • visibility of the scar with the following scoring grid: • 0=scar highly visible • 1=scar moderately visible, • 2=scar slightly visible • 3=scar non-visible.
The presence of a tissue mass (collagen+elastin) under the scar with the following scoring grid: • 0=no tissue mass present, • 1=small tissue mass present, • 2=moderate tissue mass present, • 3=large tissue mass present.
The level of vascularization of the scar with the following scoring grid: • 0=important vascularization of the scar, • 1=moderate vascularization of the scar, • 2=low vascularization of the scar, • 3=very little vascularization of the scar.
The sum of the scores of these 3 parameters gives the Global Internal Score of Wound Healing (GISWH). A macroscopic observation of all organs of the abdominal and thoracic cavities is performed on all mice. Any other organ with abnormal shape, size or colour is listed.
The body weight, mean body weight change (MBWC) of mice, the external scores of the length, width, swelling and visibility of skin wounds as well as the Global External Score of Wound Healing (GESWH), the time required for complete healing of skin wounds, and the internal scores of the visibility, the presence of a tissue mass and the vascularization of scars as well as the Global Interna Score of Wound Healing (GISWH) are analyzed at the end of the experimentation. […]

Cn1cc(-c2cccc(O)c2Oc2ccccc2)c2cc[nH]c2c1=O [BETi1]
Global external score per day (mean) (D 0): 15.00 | Mean score swelling per day (D 0): 0.00 | Mean score visibility (external) per day (D 0): 3.00 | Global external score per day (mean) (D 1): 16.33 | Mean score swelling per day (D 1): 1.33 | Mean score visibility (external) per day (D 1): 3.00 | Global external score per day (mean) (D 2): 17.67 | Mean score swelling per day (D 2): 2.00 | Mean score visibility (external) per day (D 2): 3.00 | Global external score per day (mean) (D 3): 18.17 | Mean score swelling per day (D 3): 2.00 | Mean score visibility (external) per day (D 3): 3.00 | Global external score per day (mean) (D 4): 17.50 | Mean score swelling per day (D 4): 2.17 | Mean score visibility (external) per day (D 4): 3.00 | Global external score per day (mean) (D 5): 15.00 | Mean score swelling per day (D 5): 2.17 | Mean score visibility (external) per day (D 5): 3.00 | Global external score per day (mean) (D 6): 14.17 | Mean score swelling per day (D 6): 2.17 | Mean score visibility (external) per day (D 6): 3.00 | Global external score per day (mean) (D 7): 13.67 | Mean score swelling per day (D 7): 2.50 | Mean score visibility (external) per day (D 7): 3.00 | Global external score per day (mean) (D 8): 13.50 | Mean score swelling per day (D 8): 2.33 | Mean score visibility (external) per day (D 8): 2.83 | Global external score per day (mean) (D 9): 13.33 | Mean score swelling per day (D 9): 2.17 | Mean score visibility (external) per day (D 9): 2.83 | Global external score per day (mean) (D 10): 12.00 | Mean score swelling per day (D 10): 2.17 | Mean score visibility (external) per day (D 10): 2.83 | Global external score per day (mean) (D 11): 10.33 | Mean score swelling per day (D 11): 1.83 | Mean score visibility (external) per day (D 11): 2.67 | Global external score per day (mean) (D 12): 8.00 | Mean score swelling per day (D 12): 1.67 | Mean score visibility (external) per day (D 12): 2.17 | Global external score per day (mean) (D 13): 5.17 | Mean score swelling per day (D 13): 1.67 | Mean score visibility (external) per day (D 13): 1.17 | Global external score per day (mean) (D 14): 4.50 | Mean score swelling per day (D 14): 1.67 | Mean score visibility (external) per day (D 14): 0.83 | Global external score per day (mean) (D 15): 3.00 | Mean score swelling per day (D 15): 1.50 | Mean score visibility (external) per day (D 15): 0.50 | Global external score per day (mean) (D 16): 2.17 | Mean score swelling per day (D 16): 1.17 | Mean score visibility (external) per day (D 16): 0.33 | Global external score per day (mean) (D 17): 0.50 | Mean score swelling per day (D 17): 0.50 | Mean score visibility (external) per day (D 17): 0.00 | Mean internal scores, Global internal score (after complete healing): 2.00 | Mean internal scores, Score presence tissue mass (after complete healing): 0.50 | Mean internal scores, Score vascularization (after complete healing): 1.33 | Mean internal scores, Score visibility scar (after complete healing): 0.17 | global external lesion severity score (compared to hydroalcoholic gel, beginning at treatment day 5): statistically significant decrease (improvement) in global external lesion severity score | complete healing earlier compared to hydroalcoholic gel (incisional lesions): approximately 5 days | mean time to heal (incisional lesions): 15.5 days | Mean time for complete wound healing, Day for complete healing (incisional wounds, once daily topical): 15.50 days | swelling at wound edges (significantly different on Days 15, 16 and 17 compared to vehicle and hydroalcoholic gel): rapidly reduced the swelling at wound edges | Mean score length (mm) per day (D 0): 10.00 mm | Mean score width (mm) per day (D 0): 2.00 mm | Mean score length (mm) per day (D 1): 10.00 mm | Mean score width (mm) per day (D 1): 2.00 mm | Mean score length (mm) per day (D 2): 10.00 mm | Mean score width (mm) per day (D 2): 2.67 mm | Mean score length (mm) per day (D 3): 10.00 mm | Mean score width (mm) per day (D 3): 2.83 mm | Mean score length (mm) per day (D 4): 9.33 mm | Mean score width (mm) per day (D 4): 3.00 mm | Mean score length (mm) per day (D 5): 7.50 mm | Mean score width (mm) per day (D 5): 2.33 mm | Mean score length (mm) per day (D 6): 6.50 mm | Mean score width (mm) per day (D 6): 2.50 mm | Mean score length (mm) per day (D 7): 5.67 mm | Mean score width (mm) per day (D 7): 2.50 mm | Mean score length (mm) per day (D 8): 5.67 mm | Mean score width (mm) per day (D 8): 2.67 mm | Mean score length (mm) per day (D 9): 5.50 mm | Mean score width (mm) per day (D 9): 2.83 mm | Mean score length (mm) per day (D 10): 4.83 mm | Mean score width (mm) per day (D 10): 2.17 mm | Mean score length (mm) per day (D 11): 3.83 mm | Mean score width (mm) per day (D 11): 2.00 mm | Mean score length (mm) per day (D 12): 2.67 mm | Mean score width (mm) per day (D 12): 1.50 mm | Mean score length (mm) per day (D 13): 1.50 mm | Mean score width (mm) per day (D 13): 0.83 mm | Mean score length (mm) per day (D 14): 1.17 mm | Mean score width (mm) per day (D 14): 0.83 mm | Mean score length (mm) per day (D 15): 0.50 mm | Mean score width (mm) per day (D 15): 0.50 mm | Mean score length (mm) per day (D 16): 0.33 mm | Mean score width (mm) per day (D 16): 0.33 mm | Mean score length (mm) per day (D 17): 0.00 mm | Mean score width (mm) per day (D 17): 0.00 mm | tolerability within the lesion sites and in general (throughout the treatment period): appeared to be well-tolerated | Mean body weight (gram) per day (wound model, D 0): 26.61 gram | Body weight, individual mouse (wound model, D 0, listed as BETi11.0%): 25.00 and 28.64 and 26.19 | Mean body weight (gram) per day (wound model, D 2): 25.53 gram | Mean body weight (gram) per day (wound model, D 4): 25.70 gram | Mean body weight (gram) per day (wound model, D 7): 26.10 gram | Mean body weight (gram) per day (wound model, D 9): 26.85 gram | Mean body weight (gram) per day (wound model, D 11): 27.01 gram | Mean body weight (gram) per day (wound model, D 13): 26.88 gram | Mean body weight (gram) per day (wound model, D 16): 27.33 gram | Body weight, individual mouse (wound model, D 16, listed as BETi11.0%): 25.10 and 28.47 and 28.43 | MBWC D 16 − D 0, individual mouse (wound model, listed as BETi11.0%): 0.10 and −0.17 and 2.24
